Experimental data taken from US20250304549A1, “HYDROXYAMIDE DERIVATIVE AND USE THEREOF” (SICHUAN HUIYU PHARMACEUTICAL CO., LTD., priority 2022, published 2025).
Structures can show the parent of a compound that is named as a salt.

Experiments:
[1] = target: LSD1 (Homo sapiens (Human), UniProt O60341); test: In vitro enzyme inhibition assay - LSD1 (HTRF); format: biochemical
[2] = system: NCI-H1417 cells; test: In vitro cell inhibition assay - H1417 cell proliferation (CellTiter-Glo); format: cell-based
In short: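 Cells exposed to 8 compound concentrations (5-fold dilutions) in BEGM with 10% FBS for 7 days at 37° C., 5% CO2. Viable cells measured by CellTiter-Glo luminescence; inhibition versus no-inhibitor and no-cell controls, IC50 fitted.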

[3] = system: NCI-H69 cells; test: In vitro cell inhibition assay - NCI-H69 cell proliferation (CellTiter-Glo); format: cell-based
In short: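 Cells seeded at 1×10^3 per well and incubated overnight at 37° C., 5% CO2, then treated with 8-point 5-fold compound dilutions in RPMI-640 with 20% FBS for 7 days. Viable cells measured by CellTiter-Glo luminescence; IC50 fitted from inhibition relative to no-inhibitor and no-cell controls.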

[4] = system: DU145 cells; test: In vitro cell inhibition assay - DU145 cell proliferation (CellTiter-Glo); format: cell-based
Experimental: 5. In Vitro Cell Inhibition Assay—DU145 Cell Proliferation
The inhibitory effect of the compounds on cell proliferation was assessed by detecting the number of viable cells using the CellTiter-Glo® reagent. DU145 cells in the logarithmic growth phase were collected and inoculated into transparent bottom 96-well plates at a density 1×10^3 cells per well with 100 μL medium, and incubated at 37° C., 5% CO2 overnight. The compounds were sequentially diluted in a 5-fold concentration gradient with DMSO to obtain 8 different concentrations. These were then diluted with RPMI-640 (containing 10% FBS) cell culture medium to obtain the compound working solution (2×), which was added to the cell supernatant at 100 μL per well. The incubation continued for 6 days at 37° C., 5% CO2. The plate was then removed and equilibrated at room temperature (25° C.) along with the CellTiter-Glo® mixing reagent for 10-30 minutes. After centrifugation, 120 μL of the culture medium was carefully aspirated from each well, and 60 μL of CellTiter-Glo® reagent was added. The cells were thoroughly mixed with the CellTiter-Glo® mixing reagent using a microplate shaker for 2 min. and then incubated at room temperature for 10 min. The 96-well plate was subsequently placed on a multifunctional microplate reader to record the Luminescence values (RLU).
(§1) The inhibition rate was calculated using the following formula: […]
(§2) Note: ‘Negative’ refers to the group without inhibitors; ‘Blank’ refers to the group without cells.
(§3) The IC50 value was determined by fitting the inhibition rate by GraphPad Prism software.

[5] = target: pan-HDAC; test: In vitro enzyme inhibition assay - HDAC (HDAC-Glo I/II), pan-HDAC; format: biochemical
In short: (§4)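 Inhibition was measured with the HDAC-Glo I/II luminescent assay, testing compound as an 8-point, 5-fold dilution series from a 1 mM DMSO stock. Luminescence (RLU) was normalized to no-inhibitor and no-enzyme controls, and IC50 was derived by four-parameter variable-slope fitting.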

[6] = target: HDAC8 (Homo sapiens (Human), UniProt Q9BY41); test: In vitro enzyme inhibition assay - HDAC (HDAC-Glo I/II), HDAC8; format: biochemical; details: read-out: HDAC IC50 (nM) HDAC 8
In short: as §4

[7] = system: NCI-H526 cells; test: In vitro cell inhibition assay - NCI-H526 cell proliferation (CellTiter-Glo); format: cell-based; details: Homo sapiens, NCI-H526, 120 h, H526 small cell lung cancer cell proliferation, 5 days
Experimental: 6. In Vitro Cell Inhibition Assay—NCI-H526 Cell Proliferation
The inhibitory effect of the compounds on cell proliferation was assessed by detecting the number of viable cells using CellTiter-Glo® reagent. NCI-H526 cells in the logarithmic growth phase were collected and inoculated into transparent bottom 96-well plates at a density 1×10^3 cells per well with 100 μL of medium, and incubated at 37° C., 5% CO2 overnight. The compounds were sequentially diluted in a 5-fold concentration gradient with DMSO to obtain 8 different concentrations. These were then diluted with RPMI-640 (containing 10% FBS) cell culture medium to obtain the compound working solution (2×), which was added to the cell supernatant at 100 μL per well. The incubation continued for 5 days at 37° C., 5% CO2. The plate was then removed and equilibrated at room temperature (25° C.) along with the CellTiter-Glo® mixing reagent for 10-30 minutes; 80 μL of the culture medium was carefully aspirated from each well, and 80 μL of CellTiter-Glo® reagent was added. The cells were thoroughly mixed with the CellTiter-Glo® mixing reagent using a microplate shaker for 2 min. and then incubated at room temperature for 10 min. The 96-well plate was subsequently placed on a multifunctional microplate reader to record the Luminescence values (RLU).
as §1, §2, §3

[8] = Homo sapiens, NCI-H1417, H1417 small cell lung cancer cell proliferation
[9] = Homo sapiens, NCI-H69, H69 small cell lung cancer cell proliferation
[10] = Homo sapiens, DU-145, Du145 prostate cancer cell proliferation

Chain of HDAC8 (Q9BY41 whole entry): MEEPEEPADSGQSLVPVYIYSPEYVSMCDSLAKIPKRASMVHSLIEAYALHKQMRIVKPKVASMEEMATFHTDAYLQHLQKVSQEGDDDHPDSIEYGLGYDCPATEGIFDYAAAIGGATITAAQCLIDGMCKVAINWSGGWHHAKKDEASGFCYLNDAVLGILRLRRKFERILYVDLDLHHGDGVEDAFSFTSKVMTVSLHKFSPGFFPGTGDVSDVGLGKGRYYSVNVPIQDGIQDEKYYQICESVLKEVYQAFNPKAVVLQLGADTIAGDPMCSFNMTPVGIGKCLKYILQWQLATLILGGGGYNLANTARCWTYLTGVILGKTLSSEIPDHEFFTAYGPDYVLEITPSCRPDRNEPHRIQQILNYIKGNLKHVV

| SMILES | IC50 [1] [nM] | IC50 [2, 8] [nM] | IC50 [3, 9] [nM] | IC50 [4, 10] [nM] | IC50 [5] [nM] | IC50 [6] [nM] | IC50 [7] [nM] | IC50 ([2]; H1417 small cell lung cancer cell proliferation) [nM] | IC50 ([3]; H69 small cell lung cancer cell proliferation) [nM] | IC50 ([4]; Du145 prostate cancer cell proliferation) [nM] |
| --- | --- | --- | --- | --- | --- | --- | --- | --- | --- | --- |
| Cn1nnc2cc(-c3cnc(N4CCC(NCc5ccc(/C=C/C(=O)NO)cc5)CC4)c(C#N)c3-c3ccc(C#N)c(F)c3)ccc21 [Example 141, (E)-3-(4-(((1-(3-Cyano-4-(4-cyano-3-fluorophenyl)-5-(1-methyl-1H-benzo[d][1,2,3]triazol-5-yl)pyridin-2-yl)piperidin-4-yl)amino)methyl)phenyl)-N-hydroxyacrylamide formate] | 1.72 | 31 | 95.8 | 129 |  |  |  |  |  |  |
| COc1cc(-c2cnc(N3CCC(NCC4CCN(c5ccc(C(=O)NO)cc5)CC4)CC3)c(C#N)c2-c2ccc(C#N)c(F)c2)ccc1O [Example 91, 4-(4-(1-(3-Cyano-4-(4-cyano-3-fluorophenyl)-5-(4-hydroxy-3-methoxyphenyl)pyridin-2-yl)piperidin-4-yl)amino)methyl) piperidin-1-yl)-N-hydroxybenzamide formate] |  | 623 | 906 | 2630 |  |  |  |  |  |  |
| N#Cc1ccc(-c2c(-c3ccc(F)c(O)c3)cnc(N3CCC(NCc4ccc(/C=C/C(=O)NO)cc4)CC3)c2C#N)cc1F [Example 97, (E)-3-(4-((1-(3-Cyano-4-(4-cyano-3-fluorophenyl)-5-(4-fluoro-3-hydroxyphenyl)pyridin-2-yl)piperidin-4-yl)amino)methyl) phenyl)-N-hydroxyacrylamide formate] | 1.06 | 8.93 | 8.76 | 21 |  |  |  |  |  |  |
| CC(C)(O)Cn1nnc2cc(-c3cnc(N4CCC(NCc5ccc(/C=C/C(=O)NO)cc5)CC4)c(C#N)c3-c3ccc(C#N)c(F)c3)ccc21 [Example 197, (E)-3-(4-(((1-(3-Cyano-4-(4-cyano-3-fluorophenyl)-5-(1-(2-hydroxy-2-methylpropyl)-1H-benzo[d][1,2,3]triazol-5-yl)pyridin-2-yl)piperidin-4-yl)amino)methyl)phenyl)-N-hydroxyacrylamide formate] | 0.49 | 3.59 | 71.8 |  | 7.48 | 30.1 | 193 |  |  |  |
| COc1ccc(-c2c(C#N)cc(N3CCC(NCc4ccc(/C=C/C(=O)NO)cc4)CC3)nc2-c2ccc(C#N)c(F)c2)cc1O [Example 176, (E)-3-(4-(((1-(4-cyano-6-(4-cyano-3-fluorophenyl)-5-(3-hydroxy-4-methoxyphenyl)pyridin-2-yl)piperidin-4-yl)amino)methyl)phenyl)-N-hydroxyacrylamide formate] | 0.69 | 1.88 | 245 |  | 38.2 | 508 | 497 |  |  |  |
| COc1ccc(-c2cnc(N3CCC(Nc4ccc(/C=C/C(=O)NO)cc4)CC3)c(C#N)c2-c2ccc(C#N)c(F)c2)cc1O [Example 82, (E)-3-(4-((1-(3-Cyano-4-(4-cyano-3-fluorophenyl)-5-(3-hydroxy-4-methoxyphenyl)pyridin-2-yl)piperidin-4-yl)amino)phenyl)-N-hydroxyacrylamide formate] |  | 11.5 | 268 | 352 |  |  |  |  |  |  |
| COc1cc(-c2cnc(N3CCC(NCc4ccc(/C=C/C(=O)NO)cc4)CC3)c(F)c2-c2ccc(C#N)c(F)c2)ccc1O [Example 77, (E)-3-(4-(((1-(4-(4-Cyano-3-fluorophenyl)-3-fluoro-5-(4-hydroxy-3-methoxyphenyl)pyridin-2-yl)piperidin-4-yl)amino)methyl)phenyl)-N-hydroxyacrylamide formate] |  | 661 | 121 | 320 |  |  |  |  |  |  |
| COc1ccc(-c2cnc(N3CCC(NCc4ccc(/C=C/C(=O)NO)cc4)CC3)c(C#N)c2-c2ccc(C#N)c(F)c2)c(O)c1O [Example 140, (E)-3-(4-(((1-(3-Cyano-4-(4-cyano-3-fluorophenyl)-5-(2,3-dihydroxy-4-methoxyphenyl)pyridin-2-yl)piperidin-4-yl)amino)methyl)phenyl)-N-hydroxyacrylamide formate] | 44.2 | 220 | 405 | 5190 |  |  |  |  |  |  |
| COc1ccc(-c2cnc(N3CCC(NCc4ccc(/C=C/C(=O)NO)cc4)CC3)c(C(F)(F)F)c2-c2ccc(C#N)c(F)c2)cc1O [Example 147, (E)-3-(4-(4-(4-Cyano-3-fluorophenyl)-5-(3-hydroxy-4-methoxyphenyl)-3-(trifluoromethyl)pyridin-2-yl)piperidin-4-yl)amino)methyl) phenyl)-N-hydroxyacrylamide formate] | 153 |  |  |  |  |  |  | 255 | 440 | 658 |
| N#Cc1ccc(-c2nc(N3CCC(N)CC3)cc(OCCCCCCC(=O)NO)c2-c2ccc(Cl)cc2)cc1F [Example 11, 7-((6-(4-Aminopiperidin-1-yl)-3-(4-chlorophenyl)-2-(4-cyano-3-fluorophenyl)pyridin-4-yl)oxy)-N-hydroxyheptanamide hydrochloride] |  | > 1000 | 2360 | 2000 | 116 |  |  |  |  |  |
| Cn1cc2cc(-c3c(OCCCCCCC(=O)NO)cc(N4CCC(N)CC4)nc3-c3ccc(C#N)c(F)c3)ccc2n1 [Example 14, 7-((6-(4-Aminopiperidin-1-yl)-2-(4-cyano-3-fluorophenyl)-3-(2-methyl-2H-indazol-5-yl)pyridin-4-yl)oxy)-N-hydroxyheptanamide formate] |  | > 1000 | 2520 | 3210 |  |  |  |  |  |  |
| COc1cc(-c2cnc(N3CCC(NCCCc4ccc(C(=O)NO)cc4)CC3)c(C#N)c2-c2ccc(C#N)c(F)c2)ccc1O [Example 93, 4-(3-(3-Cyano-4-(4-cyano-3-fluorophenyl)-5-(4-hydroxy-3-methoxyphenyl)pyridin-2-yl)piperidin-4-yl)amino)propyl)-N-hydroxybenzamide formate] |  | 343 | 1280 | 2840 |  |  |  |  |  |  |
| COc1ccc(-c2cnc(N3CCC(NCc4ccc(C(=O)NO)cc4)CC3)c(C#N)c2-c2ccc(C#N)c(F)c2)cc1O [Example 41, 4-(((1-(3-Cyano-4-(4-cyano-3-fluorophenyl)-5-(3-hydroxy-4-methoxyphenyl)pyridin-2-yl)piperidin-4-yl)amino)methyl)-N-hydroxybenzamide hydrochloride] | 0.13 | 1.29 | 1680 | 5060 |  |  |  |  |  |  |
| COc1ccc(-c2cnc(N3CCC(CCc4ccc(/C=C/C(=O)NO)cc4)CC3)c(C#N)c2-c2ccc(C#N)c(F)c2)cc1O [Example 89, (E)-3-(4-(2-(1-(3-cyano-4-(4-cyano-3-fluorophenyl)-5-(3-hydroxy-4-methoxyphenyl)pyridin-2-yl)piperidin-4-yl)ethyl)phenyl)-N-hydroxyacrylamide] |  | > 1000 | 120 | 390 |  |  |  |  |  |  |
| COc1ccc(-c2cnc(N3CCC(NCc4ccc(/C=C/C(=O)NO)cc4F)CC3)c(C#N)c2-c2ccc(C#N)c(F)c2)cc1O [Example 154, (E)-3-(4-(((1-(3-Cyano-4-(4-cyano-3-fluorophenyl)-5-(3-hydroxy-4-methoxyphenyl)pyridin-2-yl)piperidin-4-yl)amino)methyl)-3-fluorophenyl)-N-hydroxyacrylamide hydrochloride] | 0.44 | 1.41 | 16.5 |  | 4.3 | 309 | 21.7 |  |  |  |
